Measurements reported in publication PMC548150, “Reversal of a full-length mutant huntingtin neuronal cell phenotype by chemical inhibitors of polyglutamine-mediated aggregation” (BMC Neuroscience, 2005).
Several values for one entry are separate records, joined by “and”; a condition that tells them apart may be missing. Identical values can stand only once. Entries after “also recorded” stand apart in the source; their conditions may differ. Like-named read-outs stand apart in the source and are kept apart here.

Assays:
[1] = molecular target: T1, Q58-htn 1–171 amino terminal fragment (GST-Q58-Htn cleaved by thrombin) (Homo sapiens, UniProt P42858, INS38QQQQQQQQQQQQQQQQQQQQQQQQQQQQQQQQQQQQQ); experiment: in vitro aggregation of amino-terminal mutant huntingtin fragment (filter retardation dot blot); format: biochemical
T1 construct: the amino terminal fragment 1–171 of mutant huntingtin; GST (N, cleaved yes); made in house; host or cells: E. coli BL21 (pGEX-2TK vector)
T1 sequence (P42858 with tags, fused parts or gaps with the stated changes limits assumed): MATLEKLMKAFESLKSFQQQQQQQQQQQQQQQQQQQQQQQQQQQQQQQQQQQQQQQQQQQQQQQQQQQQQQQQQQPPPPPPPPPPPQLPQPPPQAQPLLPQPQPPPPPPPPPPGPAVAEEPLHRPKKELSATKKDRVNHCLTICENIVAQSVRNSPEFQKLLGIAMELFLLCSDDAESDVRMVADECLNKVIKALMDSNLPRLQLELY
Protocol: In our primary screen (Figure 1A), GST-Q58-Htn (20 μg/ml) was mixed with thrombin (0.5 unit/μg GST-Q58-Htn) and immediately dispensed into a 96-well PCR plate containing compounds diluted to a final concentration of 100 μM. Incubation was continued for 24 hours at room temperature to allow aggregate formation. The aggregation was stopped by 2% SDS/10 mM 2-mercaptoethanol followed by boiling for 5 minutes. The mixture was filtered through a cellulose acetate membrane by using a 96-well ELIFA dot blot apparatus. The aggregates retained on the membrane were detected and quantified by immunoblotting and subsequent image analysis. Congo Red, a known huntingtin aggregation inhibitor, was used as the positive control.
A recombinant pGEX-2TK expression vector with cDNA fragment encoding amino terminal 171 amino acids of human huntingtin with a polyglutamine tract of 58 was used to prepare the GST-Q58-htn fusion protein. The GST-Q58-htn was overexpressed in BL21 cells and purified by affinity chromatography over glutathione-sepharose 4B beads (Amersham Pharmacia Biotech). The purified proteins were stored at concentration of 2.0 mg/ml at -80°C.
For primary screening of the chemical library, 1 μl of 4.0 mM small compound stock, diluted from the original plates, was placed in wells of 96-well plates. The fusion protein, GST-Q58-Htn was mixed with thrombin (0.5 unit/1 μg protein) at a concentration of 20 μg/ml in a buffer of 50 mM Tris-HCl, pH 8.0, 100 mM NaCl, 2.5 mM CaCl2, 1.0 mM EDTA. The mixture was immediately distributed into the 96-well plates containing diluted compounds at 40 μl/well and mixed well. The final concentration of the small compounds was 100 μM. After 24 hours incubation at room temperature, the reaction was stopped by adding 10 μl of 10% SDS/50 mM 2-mercaptoethanol to each well followed by boiling in a PCR machine for 5 minutes. The mixture from each well was filtered through a cellulose acetate membrane ((0.2 μm, GE Osmonics labstore, Minnetonka MN) by using a 96-well ELIFA (Pierce Biotech). The aggregates retained on the membrane were detected by a specific anti-huntingtin antibody, HP1 (diluted 1:1000), followed by incubation with peroxidase conjugated anti-rabbit antibody (diluted 1:10,000, Sigma). Signals from SDS insoluble aggregates were scanned and quantified by using ImageMaster Totalab image analysis software (Amersham Pharmacia Biotech). In the secondary screening, all steps were the same except the final concentration of compound in each well was reduced to 10 μM and the GST-Q58-Htn/thrombin mixture was preincubated for 45-minutes at room temperature and clarified by centrifugation at 28,000 × g for 30 minutes before being added to the test wells. For IC50 determinations, the in vitro aggregation assay and signal quantification were performed as in the second screening but varying the final concentration of input drug. The data for each inhibitor were obtained from at least two independent experiments in which every sample was analyzed in triplicate with Prism 3.0 software (Graphpad Software, Inc., San Diego, CA).

[2] = system: ST111/111 striatal cells (Hdh^Q111/Q111, full-length mutant huntingtin); experiment: striatal cell line assay: huntingtin localization phenotype (AP229 immunostaining, confocal); format: cell-based, mouse; details: for Percentage of ST111/111 cells showing cytoplasmic/nuclear huntingtin localization comparable to wild-type ST7/7 cells: 30 min at 33°C, mean ± SD of 5–10 fields; for reversal of the mutant huntingtin localization phenotype (in words): 0.5–50 μM tested
Text: To test the hypothesis that compounds, which inhibit the aggregation-promoting property of amino-terminal mutant huntingtin will also rescue effects of full-length mutant huntingtin, we tested the top six inhibitors in a striatal cell-based assay. Mutant Hdh^Q111/Q111 and wild-type Hdh^Q7/Q7 striatal cell lines, […], which have been prepared by transformation with a tsSV40 vector, can be propagated in culture and used for cytological and biochemical comparisons. These cells express full-length mutant or wild-type huntingtin, respectively, with no evidence of truncated amino-terminal fragments, no formation of polyglutamine aggregates and no cell death-producing toxicity. However, like the striatal neurons of Hdh^Q111/Q111 knock-in mice, the ST111/111 cells show nuclear staining of huntingtin when tested with an amino-terminal huntingtin antibody that is sensitive to the conformation of the full-length protein (Figure 5A). By contrast, ST7/7 cells expressing wild type huntingtin show both nuclear and cytoplasmic immunostaining with the same huntingtin antibody (Figure 5A).
Conditionally immortalized wild-type Hdh^Q7/Q7 striatal neuronal progenitor cells (ST7/7) expressing endogenous normal huntingtin, and homozygous Hdh^Q111/Q111 striatal neuronal progenitor cells (ST111/111), expressing endogenous mutant huntingtin with 111-glutamines, have been described previously. The striatal cell lines were grown at 33°C in Dulbecco's modified Eagle's medium (DMEM) supplemented with 10 % fetal bovine serum (FBS), 1% nonessential aminoacids, 2 mM L-glutamine and 400 μg/ml G418 (Geneticin (GIBCO-BRL, Life Technologies, Gaithersburg, MD).
(§1) In the immunofluorescence and confocal analysis experiment, wild-type ST7/7 and homozygous mutant ST111/111 cells, grown to confluence on glass coverslips, were treated with 6 different drugs at four different concentrations (0.5, 5, 10 or 50 μM) for 30 min at 33°C. After the treatment the drugs were removed and the cells washed twice in PBS. The cells were then fixed by incubation in 4% formaldehyde for 15 min, permeabilized by 0.1% Triton X-100 for 5 min and incubated for 30 min with blocking solution (1% bovine albumin in PBS). Coverslips were then incubated in primary antibody (AP229 1:500 dilution) for 2 h at room temperature and washed three times in PBS before a further 1 h in blocking solution containing the secondary antibody (goat anti-rabbit Cy3, Jackson ImmunoResearch, West Grove, PA. USA). After three washes in PBS coverslips were mounted onto glass slides with Vectashield (Burlingame, CA. USA) and the images were analyzed with a laser confocal microscope (Bio-Rad, Hercules, CA. USA) using 20 × objective. Cell death was quantified by scoring the percentage of cells with apoptotic nuclear morphology, i.e. condensed or fragmented nuclei, under the confocal microscope. In each case five to ten randomly selected fields were counted, comprising at least 200 cells, and each experiment was repeated 3 times.

ST111/111 striatal cells = format: cell-based; details: for percentage of dead cells: mouse, 30 min
Protocol: as §1, with “After” for “In the immunofluorescence and confocal analysis experiment, wild-type ST7/7 and homozygous mutant ST111/111 cells, grown to confluence on glass coverslips, were treated with 6 different drugs at four different concentrations (0.5, 5, 10 or 50 μM) for 30 min at 33°C. After”

[3] = system: HEK 293T cells expressing androgen receptor with 112 glutamines; details: cited from earlier work
[4] = GST-Q58-Htn 20 μg/ml pre-incubated with thrombin, 24 h room temperature, average of at least two independent experiments, read-out: IC50 (half-maximal inhibition) of Q58-Htn aggregation

Molecule	Percentage of ST111/111 cells showing cytoplasmic/nuclear huntingtin localization comparable to wild-type ST7/7 cells ([2]; 0.5 μM)	Percentage of ST111/111 cells showing cytoplasmic/nuclear huntingtin localization comparable to wild-type ST7/7 cells ([2]; 5 μM)	Percentage of ST111/111 cells showing cytoplasmic/nuclear huntingtin localization comparable to wild-type ST7/7 cells ([2]; 10 μM)	reversal of the mutant huntingtin localization phenotype (in words) [2]	IC50 [1, 4]	effect on caspase 3 activation [3]	further results
Nc1c(/N=N/c2ccc(-c3ccc(/N=N/c4cc(S(=O)(=O)O)c5ccccc5c4N)cc3)cc2)cc(S(=O)(=O)O)c2ccccc12 [Congo Red]							inhibition of Q58-Htn aggregation ([1]; 10 μM, positive control): completely inhibit
Cc1cc2c(C(C)C)c(O)c(O)c(C=O)c2c(O)c1-c1c(C)cc2c(C(C)C)c(O)c(O)c(C=O)c2c1O [Gossypol-acetic acid]	0%	4.5 ± 4.3%	3.5 ± 3.5%	not effective			IC50 [1]: < 6 µM and < 15 µM and 0.65 µM; Percentage of ST111/111 cells showing cytoplasmic/nuclear huntingtin localization comparable to wild-type ST7/7 cells ([2]; 50 μM): 15.9 ± 11.1%; Percentage of ST111/111 cells showing cytoplasmic/nuclear huntingtin localization comparable to wild-type ST7/7 cells ([2]; 50 μM, listed as Gossypol acetic acid complex): 15%; reversal of the mutant huntingtin localization phenotype (in words) ([2]; listed as Gossypol acetic acid complex): less effective; cell toxicity (in words) (ST111/111 striatal cells; tested up to 50 μM): no toxicity
C[n+]1cc2c3c(ccc2c2ccc4cc5c(cc4c21)OCO5)OCO3 [Sanguinarine nitrate]	0%	3.7 ± 5.2%	0%	little effect	< 6 µM and < 15 µM and 5.7 µM	blocked caspase 3 activation	reversal of the mutant huntingtin localization phenotype (in words) ([2]; listed as sanguinarine): not effective; percentage of dead cells (ST111/111 striatal cells; 0.5 μM): 4.3%; percentage of dead cells (ST111/111 striatal cells; 5 μM): 5.5%; percentage of dead cells (ST111/111 striatal cells; 10 μM): 22.5%
CC(C)=CCC[C@]1(C)C=Cc2c(O)c3c(c(CC=C(C)C)c2O1)O[C@]12C(=C[C@@H]4C[C@H]1C(C)(C)O[C@@]2(C/C=C(/C)C(=O)O)C4=O)C3=O [Gambogic acid]	1 ± 2.6%	0%		not effective	< 6 µM and < 15 µM and 0.87 µM	blocked caspase 3 activation	residual aggregate formed ([1]; at the maximum concentration of the dose response (0.01 μM to 500 μM)): approximately 20%; toxicity in the HEK 293T assay [3]: showed toxicity
C=C1c2c(Cl)ccc(O)c2C(=O)C2=C(O)[C@]3(O)C(=O)C(C(N)=O)=C(O)[C@@H](N(C)C)[C@@H]3[C@@H](O)[C@H]12 [Meclocycline sulfosalicylate]					14.8 µM		
O=C1C=CC(=O)c2c(O)cccc21 [Juglone]	10.4 ± 12.4%	37.9 ± 19.9%	68% and 68.8 ± 18.4%	reversed the mutant phenotype in a dose-dependent manner; also recorded: effective	< 6 µM and < 15 µM and 2.67 µM		
N=C1C=CC(=C(c2ccc(N)cc2)c2ccc(N)cc2)C=C1 [Pararosaniline pamoate]					14.9 µM		
Tyrothricin					14.7 µM	blocked caspase 3 activation	toxicity in the HEK 293T assay [3]: showed toxicity
CO[C@H]1C[C@H](O[C@@H]2/C(C)=C/C[C@@H]3C[C@@H](C[C@]4(CC[C@H](C)[C@@H](C5CCCCC5)O4)O3)OC(=O)[C@@H]3C=C(C)/C(=N/O)[C@H]4OC/C(=C\C=C\[C@@H]2C)[C@]43O)O[C@@H](C)[C@@H]1O [Selamectin]							IC50 [1]: 12.4 µM
O=C1c2c(O)cccc2Cc2cccc(O)c21 [Anthralin]	4.6 ± 7.6%	6.6 ± 9.7%	9.6 ± 12.1%	little effect; also recorded: not effective	< 15 µM and 10.5 µM		Percentage of ST111/111 cells showing cytoplasmic/nuclear huntingtin localization comparable to wild-type ST7/7 cells ([2]; 50 μM): 11.8 ± 14.4%
